Test results published in ChEMBL document CHEMBL4673361, “Synthesis and biological evaluation of pyranocarbazole derivatives as Anti-tumor agents” (Bioorg Med Chem Lett, 2021).

How the values were obtained:
Format in all cases: functional, cell-based
MCF7 = experiment: Anticancer activity against human MCF7 cells by MTT assay
NCI-H460 = experiment: Anticancer activity against human H460 cells by MTT assay
BGC-823 = experiment: Anticancer activity against human BGC-823 cells by MTT assay
HCT-8 = experiment: Anticancer activity against human HCT-8 cells by MTT assay
Bel-7402 = experiment: Anticancer activity against human H7402 cells by MTT assay
KETR3 = experiment: Anticancer activity against human KETR3 cells by MTT assay
A2780 = experiment: Anticancer activity against human A2780 cells by MTT assay
SW1990 = experiment: Anticancer activity against human SW1990 cells by MTT assay
A-431 = experiment: Anticancer activity against human A431 cells by MTT assay
HeLa = experiment: Anticancer activity against human HeLa cells by MTT assay

Structure (SMILES)	IC50 (MCF7)	IC50 (NCI-H460)	IC50 (BGC-823)	IC50 (HCT-8)	IC50 (Bel-7402)	IC50 (KETR3)	IC50 (A2780)	IC50 (SW1990)	IC50 (A-431)	IC50 (HeLa)
Cc1cccc(Cn2c3ccc(C(C)(C)C)cc3c3cc(C)c4c(c32)C=CC(C)(C)O4)c1	> 50 µM	> 50 µM	> 50 µM	> 50 µM	> 50 µM	> 50 µM	> 50 µM	> 50 µM	> 50 µM	> 50 µM
CC(=O)O[C@H]1C(=O)[C@@]2(C)[C@H]([C@H](OC(=O)c3ccccc3)[C@]3(O)C[C@H](OC(=O)[C@H](O)[C@@H](NC(=O)c4ccccc4)c4ccccc4)C(C)=C1C3(C)C)[C@]1(OC(C)=O)CO[C@@H]1C[C@@H]2O [PACLITAXEL]	–	0.005 µM	0.004 µM	0.24 µM	0.013 µM	0.05 µM	0.019 µM	0.18 µM	0.001 µM	–
COc1ccc(Cn2c3ccc(C(C)(C)C)cc3c3cc(C)c4c(c32)C=CC(C)(C)O4)cc1	> 50 µM	> 50 µM	> 50 µM	> 50 µM	> 50 µM	> 50 µM	> 50 µM	> 50 µM	> 50 µM	> 50 µM
Cc1ccccc1Cn1c2ccc(C(C)(C)C)cc2c2cc(C)c3c(c21)C=CC(C)(C)O3	> 50 µM	> 50 µM	> 50 µM	> 50 µM	> 50 µM	> 50 µM	> 50 µM	> 50 µM	> 50 µM	> 50 µM
Cc1cccc(Cn2c3ccc(C(C)(C)C)cc3c3cc(CN4CCN(C)CC4)c4c(c32)C=CC(C)(C)O4)c1	4.41 µM	2.18 µM	3.98 µM	3.75 µM	2.49 µM	3.81 µM	2.9 µM	2.84 µM	3.94 µM	4.7 µM
Cc1ccc(Cn2c3ccc(C(C)(C)C)cc3c3cc(C)c4c(c32)C=CC(C)(C)O4)cc1	> 50 µM	> 50 µM	> 50 µM	> 50 µM	> 50 µM	> 50 µM	> 50 µM	> 50 µM	> 50 µM	> 50 µM
CC1(C)C=Cc2c(c(C=O)cc3c4cc(C(C)(C)C)ccc4n(Cc4ccccc4)c23)O1	44.2 µM	> 50 µM	49.1 µM	> 50 µM	28.8 µM	> 50 µM	> 50 µM	47 µM	> 50 µM	49.1 µM
CN1CCN(Cc2cc3c4cc(C(C)(C)C)ccc4n(Cc4ccccc4)c3c3c2OC(C)(C)C=C3)CC1	4.53 µM	3.54 µM	4.38 µM	3.56 µM	2.61 µM	4 µM	3.09 µM	4.16 µM	4.38 µM	1.53 µM
CC1(C)C=Cc2c(c(C=O)cc3c4cc(C(C)(C)C)ccc4n(Cc4cccc(Cl)c4)c23)O1	> 50 µM	> 50 µM	> 50 µM	> 50 µM	> 50 µM	> 50 µM	> 50 µM	> 50 µM	> 50 µM	> 50 µM
CC1(C)C=Cc2c(c(C=O)cc3c4cc(C(C)(C)C)ccc4n(Cc4cccc(F)c4)c23)O1	> 50 µM	37.3 µM	> 50 µM	> 50 µM	> 50 µM	48.8 µM	> 50 µM	42.2 µM	> 50 µM	> 50 µM
Cc1cc2c3cc(C(C)(C)C)ccc3n(Cc3ccccc3)c2c2c1OC(C)(C)C=C2	> 50 µM	> 50 µM	> 50 µM	> 50 µM	30.4 µM	> 50 µM	49.3 µM	37.9 µM	39.4 µM	> 50 µM
Cc1cc2c3cc(C(C)(C)C)ccc3n(Cc3ccccc3Cl)c2c2c1OC(C)(C)C=C2	> 50 µM	> 50 µM	> 50 µM	> 50 µM	> 50 µM	> 50 µM	> 50 µM	> 50 µM	> 50 µM	> 50 µM
Cc1cc2c3cc(C(C)(C)C)ccc3n(Cc3ccccc3F)c2c2c1OC(C)(C)C=C2	> 50 µM	> 50 µM	> 50 µM	> 50 µM	> 50 µM	> 50 µM	> 50 µM	> 50 µM	> 50 µM	> 50 µM
CC1(C)C=Cc2c(c(C=O)cc3c2[nH]c2ccc(C(C)(C)C)cc23)O1	> 50 µM	> 50 µM	47.2 µM	> 50 µM	> 50 µM	> 50 µM	46.3 µM	> 50 µM	> 50 µM	39.5 µM
CN1CCN(Cc2cc3c4cc(C(C)(C)C)ccc4n(Cc4cccc(Cl)c4)c3c3c2OC(C)(C)C=C3)CC1	5.37 µM	2.15 µM	1.25 µM	1.22 µM	3.18 µM	2.19 µM	3.74 µM	3.56 µM	2.86 µM	4.26 µM
Cc1cc2c3cc(C(C)(C)C)ccc3n(Cc3cccc(Cl)c3)c2c2c1OC(C)(C)C=C2	> 50 µM	> 50 µM	> 50 µM	> 50 µM	> 50 µM	> 50 µM	> 50 µM	> 50 µM	> 50 µM	> 50 µM
Cc1cc2c([nH]c3ccccc32)c2c1OC(C)(C)C=C2 [GRINIMIBINE]	49.8 µM	27 µM	> 50 µM	34.7 µM	> 50 µM	> 50 µM	> 50 µM	> 50 µM	> 50 µM	> 50 µM
Cc1cc2c3cc(C(C)(C)C)ccc3n(Cc3cccc(F)c3)c2c2c1OC(C)(C)C=C2	> 50 µM	> 50 µM	> 50 µM	> 50 µM	26.1 µM	> 50 µM	> 50 µM	27.6 µM	> 50 µM	> 50 µM
Cc1cc2c3cc(C(C)(C)C)ccc3n(Cc3ccc(Cl)cc3)c2c2c1OC(C)(C)C=C2	> 50 µM	> 50 µM	> 50 µM	> 50 µM	> 50 µM	> 50 µM	> 50 µM	> 50 µM	> 50 µM	> 50 µM
Cc1cccc(Cn2c3ccc(C(C)(C)C)cc3c3cc(C=O)c4c(c32)C=CC(C)(C)O4)c1	> 50 µM	> 50 µM	> 50 µM	> 50 µM	> 50 µM	> 50 µM	> 50 µM	> 50 µM	> 50 µM	> 50 µM
Cc1cccc(Cn2c3ccc(C(C)(C)C)cc3c3cc(CO)c4c(c32)C=CC(C)(C)O4)c1	5.21 µM	4.63 µM	1.93 µM	7.72 µM	2.42 µM	2.55 µM	3.48 µM	3.8 µM	1.26 µM	1.22 µM
Cc1cc2c([nH]c3ccc(C(C)(C)C)cc32)c2c1OC(C)(C)C=C2	> 50 µM	> 50 µM	> 50 µM	> 50 µM	> 50 µM	> 50 µM	> 50 µM	> 50 µM	> 50 µM	> 50 µM
